IC50 and viability, T/C data for 6 molecules are collected here from PubChem BioAssay AID1845211 (Molecular Pharmacology Branch, DTP, NCI, 2023).

The test deals with NCI-H322M multicellular tumor spheroids, viability (% test/control). Kind of test: Anticancer human tumor NCI-H322M cell line growth inhibition.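 For viability, T/C: spheroids exposed to compound for seven days before readout; 100% = DMSO vehicle control wells.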 The following applies: for viability, T/C: stronger effect = lower value. In outline:
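Complex spheroids of malignant cells with endothelial cells and mesenchymal stem cells; agents alone or combined, from near clinical Cmax (or 10 microM if unknown) down in half-log steps, 0.25% DMSO final.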

The mark [1] stands for this setting: curve of first compound, second compound 0.003 µM.
[2] abbreviates: curve of first compound, second compound 0.00949 µM.
Setting [3] is: curve of first compound, second compound 0.03 µM.
[4] abbreviates: curve of first compound, second compound 0.0949 µM.
Where [5] appears, read: curve of first compound, second compound 0.3 µM.
The mark [6] stands for this setting: second compound 0.003 µM, first compound 0.0316 µM.
[7] abbreviates: second compound 0.003 µM, first compound 0.1 µM.
Setting [8] is: second compound 0.003 µM, first compound 0.316 µM.
The mark [9] stands for this setting: second compound 0.003 µM, first compound 1 µM.
Setting [10] is: second compound 0.003 µM, first compound 3.16 µM.
Setting [11] is: second compound 0.003 µM, first compound 10 µM.
[12] abbreviates: second compound 0.00949 µM, first compound 0.0316 µM.
The mark [13] stands for this setting: second compound 0.00949 µM, first compound 0.1 µM.
Where [14] appears, read: second compound 0.00949 µM, first compound 0.316 µM.
The mark [15] stands for this setting: second compound 0.00949 µM, first compound 1 µM.
Where [16] appears, read: second compound 0.00949 µM, first compound 3.16 µM.
Setting [17] is: second compound 0.00949 µM, first compound 10 µM.
[18] abbreviates: second compound 0.03 µM, first compound 0.0316 µM.
The mark [19] stands for this setting: second compound 0.03 µM, first compound 0.1 µM.
The mark [20] stands for this setting: second compound 0.03 µM, first compound 0.316 µM.
Where [21] appears, read: second compound 0.03 µM, first compound 1 µM.
Setting [22] is: second compound 0.03 µM, first compound 3.16 µM.
[23] abbreviates: second compound 0.03 µM, first compound 10 µM.
Setting [24] is: second compound 0.0949 µM, first compound 0.0316 µM.
Where [25] appears, read: second compound 0.0949 µM, first compound 0.1 µM.
Where [26] appears, read: second compound 0.0949 µM, first compound 0.316 µM.
Where [27] appears, read: second compound 0.0949 µM, first compound 1 µM.
Where [28] appears, read: second compound 0.0949 µM, first compound 3.16 µM.
[29] abbreviates: second compound 0.0949 µM, first compound 10 µM.
[30] abbreviates: second compound 0.3 µM, first compound 0.0316 µM.
[31] abbreviates: second compound 0.3 µM, first compound 0.1 µM.
Setting [32] is: second compound 0.3 µM, first compound 0.316 µM.
Setting [33] is: second compound 0.3 µM, first compound 1 µM.
The mark [34] stands for this setting: second compound 0.3 µM, first compound 3.16 µM.
The mark [35] stands for this setting: second compound 0.3 µM, first compound 10 µM.

Several values for one entry are separate records, joined by “and”; a condition that tells them apart may be missing. Equal values may be shown once.

For `O=C(c1cc(Cc2n[nH]c(=O)c3ccccc23)ccc1F)N1CCN(C(=O)C2CC2)CC1` + Cn1nnc2c(C(N)=O)ncn2c1=O, the IC50 (commonly the concentration that gives 50% inhibition) is above 30000 nM (curve of first compound, second compound 1 µM); above 30000 nM (curve of first compound, second compound 3.16 µM); above 30000 nM (curve of first compound, second compound 10 µM); above 30000 nM (curve of first compound, second compound 31.6 µM); above 30000 nM (curve of first compound, second compound 100 µM). Also, the viability, T/C (as a rule, the ratio of treated to control) is, setting by setting: (second compound 1 µM, first compound 0.0949 µM) 84.3%; (second compound 1 µM, first compound 0.3 µM) 93.5%; (second compound 1 µM, first compound 0.949 µM) 88.7%; (second compound 1 µM, first compound 3 µM) 92.5%; (second compound 1 µM, first compound 9.49 µM) 78%; (second compound 1 µM, first compound 30 µM) 94%. Besides, the viability, T/C is 86.1% (second compound 3.16 µM, first compound 0.0949 µM); 81.5% (second compound 3.16 µM, first compound 0.3 µM); 80.1% (second compound 3.16 µM, first compound 0.949 µM); 79.9% (second compound 3.16 µM, first compound 3 µM); 88.2% (second compound 3.16 µM, first compound 9.49 µM); 84.6% (second compound 3.16 µM, first compound 30 µM). The viability, T/C is 85.4% (second compound 10 µM, first compound 0.0949 µM); 90.7% (second compound 10 µM, first compound 0.3 µM); 85.7% (second compound 10 µM, first compound 0.949 µM); 78.1% (second compound 10 µM, first compound 3 µM); 80% (second compound 10 µM, first compound 9.49 µM); 73.5% (second compound 10 µM, first compound 30 µM). Further, the viability, T/C was 105% (second compound 31.6 µM, first compound 0.0949 µM); 87.5% (second compound 31.6 µM, first compound 0.3 µM); 86.1% (second compound 31.6 µM, first compound 0.949 µM); 93.1% (second compound 31.6 µM, first compound 3 µM); 84.5% (second compound 31.6 µM, first compound 9.49 µM); 93.6% (second compound 31.6 µM, first compound 30 µM). In addition, the viability, T/C is, setting by setting: (second compound 100 µM, first compound 0.0949 µM) 76.8%; (second compound 100 µM, first compound 0.3 µM) 82.4%; (second compound 100 µM, first compound 0.949 µM) 96.4%; (second compound 100 µM, first compound 3 µM) 86.8%; (second compound 100 µM, first compound 9.49 µM) 75.2%; (second compound 100 µM, first compound 30 µM) 71.4%.

Take `Cc1sc2c(c1C)C(c1ccc(Cl)cc1)=NC(CC(=O)Nc1ccc(O)cc1)c1nnc(C)n1-2` (stereo not drawn): the viability, T/C (compound 0.00949 µM) is 106% and 134% and 101%; the viability, T/C (compound 0.03 µM) was 114% and 110% and 109%; the viability, T/C (compound 0.0949 µM) was 122% and 129% and 130%; the viability, T/C (compound 0.3 µM) is 112% and 114% and 116%; the viability, T/C (compound 0.949 µM) is 86.2% and 95.3% and 76%; the viability, T/C (compound 3 µM) was 75.4% and 80.9% and 64%. In addition, for the setting “curve of compound”, the half-inhibitory concentration (IC50) is above 3000 nM.

For the molecule `COc1ccc([C@@H](O)c2cc(-c3ncnc4cc(N5CCOCC5)ccc34)c(F)cc2Cl)nn1`, the viability, T/C was 94.5% and 86.9% and 89% (compound 0.0316 µM); 82% and 74.6% and 84.6% (compound 0.1 µM); 79.5% and 68% and 94.4% (compound 0.316 µM); 61.6% and 63.9% and 62.2% (compound 1 µM); 38.2% and 58.7% and 52.9% (compound 3.16 µM); 33.5% and 34.7% and 43.3% (compound 10 µM). Further, the IC50 (curve of compound) was 1820 nM and 3810 nM and 2700 nM.

Turning to `COc1ccc([C@@H](O)c2cc(-c3ncnc4cc(N5CCOCC5)ccc34)c(F)cc2Cl)nn1` + CC[C@@]1(O)C(=O)OCc2c1cc1n(c2=O)Cc2cc3c(CN(C)C)c(O)ccc3nc2-1, the IC50 reads like this: under setting [1], 1670 nM; under setting [2], 1360 nM; under setting [3], 1050 nM; under setting [4], 721 nM; under setting [5], 384 nM. For the same molecule, the viability, T/C under setting [6] is 79.4%; the viability, T/C under setting [7] is 88.7%; the viability, T/C under setting [8] was 91.2%; the viability, T/C under setting [9] was 59.2%; the viability, T/C under setting [10] is 45%; the viability, T/C under setting [11] is 32.2%. For the same molecule, the viability, T/C was 80.8% under setting [12]; 75.8% under setting [13]; 79.7% under setting [14]; 52.5% under setting [15]; 45.4% under setting [16]; 32.2% under setting [17]. Besides, the viability, T/C was 72.5% under setting [18]; 80.1% under setting [19]; 61.8% under setting [20]; 51.8% under setting [21]; 37.2% under setting [22]; 30.2% under setting [23]. The viability, T/C reads like this: under setting [24], 76.5%; under setting [25], 61.7%; under setting [26], 61.9%; under setting [27], 46.3%; under setting [28], 36.1%; under setting [29], 29.8%. Also, the viability, T/C under setting [30] is 56.4%; the viability, T/C under setting [31] is 54.4%; the viability, T/C under setting [32] is 52.7%; the viability, T/C under setting [33] is 37.6%; the viability, T/C under setting [34] is 26%; the viability, T/C under setting [35] is 24.4%.

Regarding `COc1cc(C)[nH]c(=O)c1CN1CCc2c(Cl)cc(C(OC)C3COC3)c(Cl)c2C1=O` (stereo not drawn) + CC[C@@]1(O)C(=O)OCc2c1cc1n(c2=O)Cc2cc3c(CN(C)C)c(O)ccc3nc2-1, the IC50 runs as follows: under setting [1], above 10000 nM; under setting [2], above 10000 nM; under setting [3], above 10000 nM; under setting [4], above 10000 nM; under setting [5], 9800 nM. For the same molecule, the viability, T/C runs as follows: under setting [6], 79.2%; under setting [7], 75.4%; under setting [8], 74.4%; under setting [9], 73.1%; under setting [10], 84.3%; under setting [11], 88%. Also, the viability, T/C is 83.9% under setting [12]; 65.2% under setting [13]; 65.2% under setting [14]; 74% under setting [15]; 78.6% under setting [16]; 89.6% under setting [17]. Also, the viability, T/C by setting is: under setting [18], 69%; under setting [19], 68.8%; under setting [20], 72.8%; under setting [21], 69.3%; under setting [22], 73.4%; under setting [23], 71.7%. Further, the viability, T/C reads like this: under setting [24], 72%; under setting [25], 66.9%; under setting [26], 70.8%; under setting [27], 58.1%; under setting [28], 65.4%; under setting [29], 71.2%. Further, the viability, T/C was 60.5% under setting [30]; 49.9% under setting [31]; 48.5% under setting [32]; 48.5% under setting [33]; 54.9% under setting [34]; 50.3% under setting [35].

Take `COc1cc2c(cc1O)CCNC21CSC2c3c(OC(C)=O)c(C)c4c(c3C(COC1=O)N1C(O)C3Cc5cc(C)c(OC)c(O)c5C(C21)N3C)OCO4` (stereo not drawn): the viability, T/C (compound 94.9 pM) was 90.7% [middle of 10 runs]; the viability, T/C (compound 0.0003 µM) is 90.7% [middle of 10 runs]; the viability, T/C (compound 0.003 µM) is 7.2% [middle of 10 runs]. Further, the IC50 (compound alone, run of 12/12/2019) was 1.56 nM [middle of 8 runs].
